Test results published in US12226446B2, “WS-635 uses thereof in medicine” (WATERSTONE PHARMACEUTICALS(WUHAN) CO., LTD., priority 2019, dated 2025).

Key:
synaptophysin = test: Western blot of brain synaptophysin after anesthesia/surgery; type: in vivo, mice; conditions: 26.4 mg/kg IP
cyclophilin A = cyclophilin A (Homo sapiens, UniProt P62937); conditions: cited from earlier work
[1] = tested on: stimulated human peripheral blood mononuclear cells; conditions: cited from earlier work
hepatitis C virus (HCV) [2] = conditions: two-drug combination, in vitro; cited from earlier work
cytochrome P450 3A4 = conditions: cited from earlier work
ATP = test: brain ATP measurement after anesthesia/surgery; type: in vivo, mice; conditions: 26.4 mg/kg IP
Text: 9-month-old C57BL/J6 female mice were adaptive in lab for 3 days. The mice were randomly assigned to the anesthesia/surgery group or control group by weight. […] Specifically, the inventors anesthetized each of the mice using 1.4% isoflurane in 100% oxygen in a transparent acrylic chamber. Fifteen minutes after the induction, the inventors moved the mouse out of the chamber. Isoflurane anesthesia was maintained via a cone device, and one 16-gauge needle was inserted into the cone near the nose of the mouse to monitor the concentration of isoflurane. The inventors made a longitudinal midline incision from the xiphoid to the 0.5 centimeter proximal pubic symphysis on the skin, abdominal muscles and peritoneum. The inventors then sutured the incision layer by layer with 5-0 Vicryl thread. […]
ATP Measurement. The levels of ATP in the cortex of mice (N=6 in each group) were determined by the ATP Colorimetric/Fluorometric Assay Kit following the protocol provided by the manufacturer (Abcam, Cambridge, MA). […] The amount of fluorescence will be measured and the levels of ATP in the experimental samples will be calculated from the standard curve made from samples containing a known amount of ATP.

[3] = tested on: anesthesia/surgery-induced cognitive impairment; test: Fear Conditioning Test (FCT); type: in vivo, mice; conditions: 52.8 mg/kg IP; Tone test 48 hours, Context test 7 days after anesthesia/surgery; FIG. 6A-6D
Text: (§1) 9-month-old C57BL/J6 female mice were adaptive in lab for 3 days. The mice were randomly assigned to the anesthesia/surgery group or control group by weight. […] Specifically, the inventors anesthetized each of the mice using 1.4% isoflurane in 100% oxygen in a transparent acrylic chamber. Fifteen minutes after the induction, the inventors moved the mouse out of the chamber. Isoflurane anesthesia was maintained via a cone device, and one 16-gauge needle was inserted into the cone near the nose of the mouse to monitor the concentration of isoflurane. The inventors made a longitudinal midline incision from the xiphoid to the 0.5 centimeter proximal pubic symphysis on the skin, abdominal muscles and peritoneum. The inventors then sutured the incision layer by layer with 5-0 Vicryl thread.
(§2) The inventors applied EMLA cream (2.5% lidocaine and 2.5% prilocaine) to the incision site at the end of the procedure, and then every eight hours until the euthanasia of the mice, to treat the pain associated with the incision. […]
The first tone test was performed at 90 minutes after the end of the pairing. […] The “freezing behavior” was analyzed by Any-Maze (freezing on threshold: 10; freezing off threshold: 20; minimum freezing duration: one second) (Stoelting). The percentage of freezing time was calculated by dividing the actual freezing time with the observed time (180 seconds).

IL-6 = test: brain IL-6 levels after anesthesia/surgery; design: species or system mice; conditions: mouse, in vivo
Method: Brain Tissue Harvest, Lysis and Protein Quantification. Different mice will be used for the harvest of brain tissue. Levels of interleukin-6 (IL-6) and postsynaptic density (PSD)-95 in the cortex and hippocampus of mice will be assessed. The brain tissues (cortex and hippocampus) of the mice will be harvested immediately at the end of the anesthesia/surgery by decapitation. The harvested brain tissues will be homogenized on ice using immunoprecipitation buffer (10 mM Tris-HCl, pH 7.4, 150 mM NaCl, 2 mM EDTA, 0.5% Nonidet P-40) plus protease inhibitors ([…]). The lysates will be collected, centrifuged at 10,000 rpm for 5 minutes at 4° C., and quantified for total proteins by bicinchoninic acid (BCA) protein assay kit (Pierce, Iselin, NJ). The brain tissues will then be subjected to Western Blot.

stimulated Jurkat cells = conditions: cited from earlier work
P-glycoprotein = P-glycoprotein (Homo sapiens, UniProt P08183); conditions: cited from earlier work
Sequence of P-glycoprotein (P08183 whole entry): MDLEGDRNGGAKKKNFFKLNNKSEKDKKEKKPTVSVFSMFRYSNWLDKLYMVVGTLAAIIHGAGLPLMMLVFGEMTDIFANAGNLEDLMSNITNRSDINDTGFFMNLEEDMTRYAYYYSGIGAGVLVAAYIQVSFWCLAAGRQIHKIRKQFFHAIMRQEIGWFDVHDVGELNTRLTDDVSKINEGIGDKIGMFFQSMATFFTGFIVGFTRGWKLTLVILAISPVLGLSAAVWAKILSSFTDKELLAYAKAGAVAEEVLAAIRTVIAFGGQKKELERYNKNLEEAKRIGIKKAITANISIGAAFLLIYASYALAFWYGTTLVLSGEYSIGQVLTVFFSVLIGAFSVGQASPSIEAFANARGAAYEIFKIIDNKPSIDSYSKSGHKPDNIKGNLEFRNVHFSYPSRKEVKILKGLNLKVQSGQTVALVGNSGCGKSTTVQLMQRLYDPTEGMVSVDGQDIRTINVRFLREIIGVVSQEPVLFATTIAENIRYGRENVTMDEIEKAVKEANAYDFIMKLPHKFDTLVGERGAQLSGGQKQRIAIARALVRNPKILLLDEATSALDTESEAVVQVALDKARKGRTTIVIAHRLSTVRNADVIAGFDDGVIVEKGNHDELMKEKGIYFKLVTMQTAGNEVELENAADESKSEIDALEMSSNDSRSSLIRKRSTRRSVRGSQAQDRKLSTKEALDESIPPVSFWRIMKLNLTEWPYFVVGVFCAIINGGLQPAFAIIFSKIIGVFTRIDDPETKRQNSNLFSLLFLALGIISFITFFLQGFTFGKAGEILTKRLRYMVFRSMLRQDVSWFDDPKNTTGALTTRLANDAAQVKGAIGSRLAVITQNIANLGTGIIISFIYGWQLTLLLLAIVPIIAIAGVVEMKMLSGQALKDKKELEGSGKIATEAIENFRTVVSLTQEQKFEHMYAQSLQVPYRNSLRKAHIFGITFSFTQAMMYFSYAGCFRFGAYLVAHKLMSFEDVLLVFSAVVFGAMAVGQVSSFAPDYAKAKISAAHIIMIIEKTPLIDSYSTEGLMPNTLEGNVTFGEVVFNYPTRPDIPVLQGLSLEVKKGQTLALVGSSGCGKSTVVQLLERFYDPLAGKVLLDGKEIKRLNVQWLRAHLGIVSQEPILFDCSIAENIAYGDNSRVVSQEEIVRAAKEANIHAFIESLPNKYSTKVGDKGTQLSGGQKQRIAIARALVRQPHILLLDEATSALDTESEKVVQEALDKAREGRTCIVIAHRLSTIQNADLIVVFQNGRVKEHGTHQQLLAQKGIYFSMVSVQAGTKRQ

[4] = tested on: anesthesia/surgery-induced cognitive impairment; test: Barnes Maze Test; type: in vivo, mice; conditions: 26.4 mg/kg and 13.2 mg/kg IP; one week after anesthesia/surgery; FIG. 7A-7J
Text: as §1, §2
One week after anesthesia/surgery, animals were subjected to Barnes maze to test their spatial learning and memory. […] The latency and number of errors to find the target box during each trial were recorded with the assistance of ANY-Maze video tracking system.

calcineurin = conditions: at concentrations up to 2 μM; cited from earlier work
ROS = test: brain ROS levels after anesthesia/surgery; design: species or system mice; conditions: mouse, in vivo
cytochrome P450 2B6 = conditions: cited from earlier work
hepatitis C virus (HCV) [5] = conditions: in vitro; cited from earlier work
[6] = multiple animal species, cited from earlier work
PSD-95 = test: Western blot of brain PSD-95 after anesthesia/surgery; type: in vivo, mice; conditions: 26.4 mg/kg IP
Text: 9-month-old C57BL/J6 female mice were adaptive in lab for 3 days. The mice were randomly assigned to the anesthesia/surgery group or control group by weight. […] Specifically, the inventors anesthetized each of the mice using 1.4% isoflurane in 100% oxygen in a transparent acrylic chamber. Fifteen minutes after the induction, the inventors moved the mouse out of the chamber. Isoflurane anesthesia was maintained via a cone device, and one 16-gauge needle was inserted into the cone near the nose of the mouse to monitor the concentration of isoflurane. […]
Brain Tissue Harvest, Lysis and Protein Quantification. […] Levels of interleukin-6 (IL-6) and postsynaptic density (PSD)-95 in the cortex and hippocampus of mice will be assessed. […] The lysates will be collected, centrifuged at 10,000 rpm for 5 minutes at 4° C., and quantified for total proteins by bicinchoninic acid (BCA) protein assay kit (Pierce, Iselin, NJ). […]
Western Blot Analysis. […] Western blot quantification was performed as described. Briefly, signal intensity was analyzed using a Bio-Rad (Hercules, CA) image program (Quantity One). The inventors quantified Western blots in two steps, first, the inventors used β-Actin levels to normalize (e.g., determine the ratio of PSD-95 to β-Actin amount) protein levels and control for loading differences in the total protein amount. […]

cytochrome P450 1A2 = conditions: cited from earlier work

Sequence of cyclophilin A (P62937 whole entry, species assumed): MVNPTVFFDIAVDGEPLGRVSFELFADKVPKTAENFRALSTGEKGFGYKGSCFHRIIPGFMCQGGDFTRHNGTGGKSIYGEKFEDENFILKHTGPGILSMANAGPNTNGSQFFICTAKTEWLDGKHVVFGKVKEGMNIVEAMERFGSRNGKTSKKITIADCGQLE

C/C=C/C[C@@H](C)[C@@H](O)[C@H]1C(=O)N[C@@H](CC)C(=O)N(C)[C@H](SCCN(C)C)C(=O)N(C)[C@@H](CC(C)(C)O)C(=O)N[C@@H](C(C)C)C(=O)N(C)[C@@H](CC(C)C)C(=O)N[C@@H](C)C(=O)N[C@H](C)C(=O)N(C)[C@@H](CC(C)C)C(=O)N(C)[C@@H](CC(C)C)C(=O)N(C)[C@@H](C(C)C)C(=O)N1C [WS-635, (3S,6S,9S,12R,15S,18S,21S,24S,27R,30S,33S)-27-((2-(dimethylamino)ethyl)thio)-30-ethyl-33-((1R,2R,E)-1-hydroxy-2-methylhex-4-en-1-yl)-24-(2-hydroxy-2-methylpropyl)-6,9,18-tri isobutyl-3,21-diisopropyl-1,4,7,10,12,15,19,25,28-nonamethyl-1,4,7,10,13,16,19,22,25,28,31-undecaazacyclotritriacontan-2,5,8,11,14,17,20,23,26,29,32-undecaone]
anesthesia/surgery-induced decrease of synaptophysin level in cortex (synaptophysin; cortex, FIG. 3): mitigate
anesthesia/surgery-induced decrease of synaptophysin level in hippocampus (synaptophysin; hippocampus, FIG. 4): mitigate
inhibition of peptidyl prolyl isomerase activity of cyclophilin A (cyclophilin A): nanomolar concentrations
inhibition of interleukin-2 secretion compared with cyclosporine [1]: weaker inhibitor
antiviral activity in combination with alpha interferon 2b (hepatitis C virus (HCV) [2]): synergistic antiviral activity
antiviral activity in combination with ribavirin (hepatitis C virus (HCV) [2]): additive antiviral activity
induction of cytochrome P450 3A4 (cytochrome P450 3A4): did not induce
anesthesia/surgery-induced decrease of ATP level in cortex (ATP; cortex, FIG. 5A): mitigate
anesthesia/surgery-induced decrease of ATP level in hippocampus (ATP; hippocampus, FIG. 5B): mitigate
anesthesia/surgery-induced reduction in freezing time [3]: mitigated
anesthesia/surgery-induced changes in brain levels of IL-6 (IL-6): attenuate
inhibition of interleukin-2 secretion compared with cyclosporine (stimulated Jurkat cells): weaker inhibitor
inhibition of P-glycoprotein (P-glycoprotein): weak inhibitor
substrate for P-glycoprotein (P-glycoprotein): poor substrate
anesthesia/surgery-induced decrease in escape speed [4]: mitigated
anesthesia/surgery-induced increase in escape latency [4]: mitigated
inhibition of calcineurin phosphatase activity (calcineurin): no detectable inhibition
anesthesia/surgery-induced changes in brain levels of ROS (ROS): attenuate
induction of cytochrome P450 2B6 (cytochrome P450 2B6): did not induce
suppression of HCV replication (hepatitis C virus (HCV) [5]): potent suppression
oral bioavailability [6]: orally bioavailable
blood and liver concentrations of parent drug versus 50% effective dose in replicon assay ([6]; oral): exceeded the 50% effective dose
anesthesia/surgery-induced decrease of PSD-95 level in cortex (PSD-95; cortex, FIG. 3): mitigate
anesthesia/surgery-induced decrease of PSD-95 level in hippocampus (PSD-95; hippocampus, FIG. 4): mitigate
induction of cytochrome P450 1A2 (cytochrome P450 1A2): did not induce
